Measurements as given in PubChem BioAssay AID256 (DTP/NCI, 2004).
Values joined by “and” are separate entries in the source; they are usually repeats but may differ in a detail not shown here. Identical values can stand only once. Toxic doses and inconclusive results are not listed. How the source made its calls: active means survival T/C of 150% or more; inactive means T/C below 125% in these data.

Tested on: CD2F1 mice, L1210 leukemia ip, survival T/C
Assay: NCI In Vivo Anticancer Drug Screen. Data for tumor model L1210 Leukemia (intraperitoneal) in CD2F1 (CDF1) mice
Conditions: higher = longer survival
In short: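 Tumor-bearing mice (transplanted tumor) were split into treated and vehicle control groups, and the measured endpoint of each treated group was divided by that of its vehicle controls.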

[1] = endpoint: mean survival time, dose: 100.0 mg/kg/injection, schedule: Q01DX009 (ip), vehicle: saline with Tween-80
[2] = endpoint: mean survival time, dose: 100.0 mg/kg/injection, schedule: Q04DX003 (ip), vehicle: saline with Tween-80
[3] = endpoint: mean survival time, dose: 200.0 mg/kg/injection, schedule: Q01DX009 (ip), vehicle: saline with Tween-80
[4] = endpoint: mean survival time, dose: 400.0 mg/kg/injection, schedule: Q01DX009 (ip), vehicle: saline with Tween-80
[5] = endpoint: mean survival time, dose: 100.0 mg/kg/injection, schedule: Q04DX002 (ip), vehicle: saline with Tween-80
[6] = endpoint: mean survival time, dose: 400.0 mg/kg/injection, schedule: Q04DX002 (ip), vehicle: saline with Tween-80
[7] = endpoint: mean survival time, dose: 200.0 mg/kg/injection, schedule: Q04DX002 (ip), vehicle: saline with Tween-80
[8] = endpoint: mean survival time, dose: 200.0 mg/kg/injection, schedule: Q04DX003 (ip), vehicle: saline with Tween-80
[9] = endpoint: mean survival time, dose: 400.0 mg/kg/injection, schedule: Q04DX003 (ip), vehicle: saline with Tween-80
[10] = endpoint: mean survival time, dose: 100.0 mg/kg/injection, schedule: Q01DX001 (ip), vehicle: saline with Tween-80
[11] = endpoint: mean survival time, dose: 200.0 mg/kg/injection, schedule: Q01DX001 (ip), vehicle: saline with Tween-80
[12] = endpoint: mean survival time, dose: 400.0 mg/kg/injection, schedule: Q01DX001 (ip), vehicle: saline with Tween-80

Measured: T/C

CC1OC2CC(O)C1(O)C1=C2C(O)=C(C(N)=O)C(=N)C1=O (centres undefined)
inactive: endpoint: median survival time, dose: 0.31 mg/kg/injection, schedule: Q01DX005 (ip), vehicle: saline 101 % of control | endpoint: median survival time, dose: 0.62 mg/kg/injection, schedule: Q01DX005 (ip), vehicle: saline 101 % of control | endpoint: median survival time, dose: 1.25 mg/kg/injection, schedule: Q01DX005 (ip), vehicle: saline 101 % of control | endpoint: median survival time, dose: 2.5 mg/kg/injection, schedule: Q01DX005 (ip), vehicle: saline 98 % of control | endpoint: median survival time, dose: 5.0 mg/kg/injection, schedule: Q01DX005 (ip), vehicle: saline 108 % of control

Cc1ccc2c(c1Oc1ccc(S(N)(=O)=O)cc1)C(=O)c1ccccc1C2=O
inactive: [1] 103 % of control | endpoint: mean survival time, dose: 100.0 mg/kg/injection, schedule: Q04DX003 (ip), vehicle: saline sonified 88 % of control | [2] 90 % of control | [3] 101 % of control | [4] 97 % of control | endpoint: mean survival time, dose: 400.0 mg/kg/injection, schedule: Q04DX003 (ip), vehicle: saline sonified 107 % of control

Cc1nc(Cl)cc(Cl)c1C
inactive: endpoint: mean survival time, dose: 178.0 mg/kg/injection, schedule: Q04DX003 (ip), vehicle: other 100 % of control | endpoint: mean survival time, dose: 266.0 mg/kg/injection, schedule: Q04DX003 (ip), vehicle: other 100 % of control | endpoint: mean survival time, dose: 400.0 mg/kg/injection, schedule: Q04DX003 (ip), vehicle: other 95 % of control | endpoint: mean survival time, dose: 600.0 mg/kg/injection, schedule: Q04DX003 (ip), vehicle: other 105 % of control

COC(=O)CC(O)(CCCC(C)(C)O)C(=O)OC1C(OC)=CC23CCCN2CCc2cc4c(cc2C13)OCO4 (centres undefined) (tested in a mixture with another compound)
inactive: endpoint: mean survival time, dose: 0.25 mg/kg/injection, schedule: Q01DX009 (ip), vehicle: saline with Tween-80 112 % of control | endpoint: mean survival time, dose: 0.5 mg/kg/injection, schedule: Q01DX009 (ip), vehicle: saline with Tween-80 115 % of control | endpoint: mean survival time, dose: 1.0 mg/kg/injection, schedule: Q01DX009 (ip), vehicle: saline with Tween-80 115 % of control | endpoint: mean survival time, dose: 2.0 mg/kg/injection, schedule: Q01DX009 (ip), vehicle: saline with Tween-80 124 % of control

CC(=O)C(Cl)C(C)=O.CC(=O)C(Cl)C(C)=O.CO.CO.[Ni]
inactive: endpoint: mean survival time, dose: 50.0 mg/kg/injection, schedule: Q04DX003 (ip), vehicle: saline 108 % of control

CCCOC(=O)COc1ccc(F)cc1F
inactive: endpoint: mean survival time, dose: 25.0 mg/kg/injection, schedule: Q04DX002 (ip), vehicle: saline with Tween-80 103 % of control | endpoint: mean survival time, dose: 50.0 mg/kg/injection, schedule: Q04DX002 (ip), vehicle: saline with Tween-80 100 % of control | [5] 92 % of control and 95 % of control | [6] 95 % of control

Cc1c(C=NC(=O)c2ccccc2)c2ccccc2n1C
inactive: [5] 100 % of control | [7] 108 % of control | [6] 96 % of control

CC1(C)CC2(C)OC2C2(C1)N=NC(=Nc1ccccc1)O2 (centres undefined)
inactive: endpoint: median survival time, dose: 25.0 mg/kg/injection, schedule: Q01DX009 (ip), vehicle: saline with Tween-80 110 % of control | endpoint: median survival time, dose: 50.0 mg/kg/injection, schedule: Q01DX009 (ip), vehicle: saline with Tween-80 102 % of control

Oc1ccc(/C=N\N=C\c2ccc(O)cc2)cc1
inactive: [1] 86 % of control | [2] 96 % of control | [3] 86 % of control | [8] 89 % of control | [4] 91 % of control | [9] 96 % of control

O=C1CSC(=S)N1/N=C/c1ccccc1
inactive: endpoint: mean survival time, dose: 100.0 mg/kg/injection, schedule: Q04DX002 (ip), vehicle: saline 103 % of control

COc1cc(OC)c(NC(=O)Nc2cc(C)on2)cc1Cl
inactive: endpoint: mean survival time, dose: 12.5 mg/kg/injection, schedule: Q01DX009 (ip), vehicle: saline with Tween-80 98 % of control | endpoint: mean survival time, dose: 25.0 mg/kg/injection, schedule: Q01DX009 (ip), vehicle: saline with Tween-80 92 % of control | endpoint: mean survival time, dose: 50.0 mg/kg/injection, schedule: Q01DX009 (ip), vehicle: saline with Tween-80 95 % of control

C1CCC(C2CCCC[N-]2)[N-]C1.C1CCC(C2CCCC[N-]2)[N-]C1.O=C(O)C(=O)O.[Ru+4] (centres undefined)
inactive: endpoint: mean survival time, dose: 3.13 mg/kg/injection, schedule: Q04DX003 (ip), vehicle: water 101 % of control | endpoint: mean survival time, dose: 6.25 mg/kg/injection, schedule: Q04DX003 (ip), vehicle: water 93 % of control | endpoint: mean survival time, dose: 12.5 mg/kg/injection, schedule: Q04DX003 (ip), vehicle: water 96 % of control | endpoint: mean survival time, dose: 25.0 mg/kg/injection, schedule: Q04DX003 (ip), vehicle: water 93 % of control | endpoint: mean survival time, dose: 50.0 mg/kg/injection, schedule: Q04DX003 (ip), vehicle: water 93 % of control | endpoint: mean survival time, dose: 100.0 mg/kg/injection, schedule: Q04DX003 (ip), vehicle: water 95 % of control | endpoint: mean survival time, dose: 200.0 mg/kg/injection, schedule: Q04DX003 (ip), vehicle: water 91 % of control

CCOC(=O)Cc1nc2ccccc2[nH]1
inactive: [10] 95 % of control | [5] 101 % of control | [2] 90 % of control and 102 % of control | [11] 95 % of control | [7] 93 % of control | [8] 93 % of control and 97 % of control | [12] 93 % of control | [6] 95 % of control | [9] 91 % of control

c1ccc2c(c1)sc1cc3c(cc12)CCCC3
inactive: endpoint: mean survival time, dose: 7.9 mg/kg/injection, schedule: Q04DX003 (ip), vehicle: other 93 % of control | endpoint: mean survival time, dose: 15.7 mg/kg/injection, schedule: Q04DX003 (ip), vehicle: other 93 % of control | endpoint: mean survival time, dose: 31.3 mg/kg/injection, schedule: Q04DX003 (ip), vehicle: other 93 % of control | endpoint: mean survival time, dose: 62.5 mg/kg/injection, schedule: Q04DX003 (ip), vehicle: other 93 % of control | endpoint: mean survival time, dose: 125.0 mg/kg/injection, schedule: Q04DX003 (ip), vehicle: other 93 % of control

C=CCNC(=O)/C=C/C(=O)O
inactive: endpoint: mean survival time, dose: 100.0 mg/kg/injection, schedule: Q04DX003 (ip), vehicle: saline 97 % of control | endpoint: mean survival time, dose: 200.0 mg/kg/injection, schedule: Q04DX003 (ip), vehicle: saline 97 % of control | endpoint: mean survival time, dose: 400.0 mg/kg/injection, schedule: Q04DX003 (ip), vehicle: saline 103 % of control

c1ccc2c(c1)CCCN2
inactive: endpoint: mean survival time, dose: 31.5 mg/kg/injection, schedule: Q04DX003 (ip), vehicle: saline with Tween-80 98 % of control | endpoint: mean survival time, dose: 50.0 mg/kg/injection, schedule: Q04DX003 (ip), vehicle: saline with Tween-80 102 % of control | endpoint: mean survival time, dose: 63.0 mg/kg/injection, schedule: Q04DX003 (ip), vehicle: saline with Tween-80 98 % of control | [2] 102 % of control | endpoint: mean survival time, dose: 125.0 mg/kg/injection, schedule: Q04DX003 (ip), vehicle: saline with Tween-80 106 % of control | [8] 93 % of control | [9] 86 % of control

O=[N+]([O-])c1ccc(/C=C/C=C\c2cccc(S(=O)(=O)F)c2)c(Cl)c1
inactive: endpoint: mean survival time, dose: 100.0 mg/kg/injection, schedule: Q01DX009 (ip), vehicle: acetone 100 % of control | [2] 102 % of control | endpoint: mean survival time, dose: 200.0 mg/kg/injection, schedule: Q01DX009 (ip), vehicle: acetone 104 % of control | [8] 97 % of control | endpoint: mean survival time, dose: 400.0 mg/kg/injection, schedule: Q01DX009 (ip), vehicle: acetone 104 % of control | [9] 94 % of control

CC(=O)N(C)c1ccc(S(=O)(=O)Cl)cc1
inactive: [10] 100 % of control | [11] 105 % of control | [12] 93 % of control

O=C(CCl)Nc1ccc(Cl)cc1
inactive: endpoint: mean survival time, dose: 25.0 mg/kg/injection, schedule: Q01DX009 (ip), vehicle: Klucel (hydroxypropylcellulose) (HPC) 97 % of control | endpoint: mean survival time, dose: 50.0 mg/kg/injection, schedule: Q01DX009 (ip), vehicle: Klucel (hydroxypropylcellulose) (HPC) 96 % of control | endpoint: mean survival time, dose: 50.0 mg/kg/injection, schedule: Q04DX003 (ip), vehicle: Klucel (hydroxypropylcellulose) (HPC) 97 % of control | endpoint: mean survival time, dose: 100.0 mg/kg/injection, schedule: Q04DX003 (ip), vehicle: Klucel (hydroxypropylcellulose) (HPC) 100 % of control | [2] 106 % of control
